# According to patent US5344821A, “Pheromonostatic peptide used to disrupt mating of the corn earworm, helicoverpa zea” (The United States of America, as represented by the …, priority 1993, dated 1994):
# Where a name gives a salt, the structure may show the parent alone.
# Tests used:
# corn earworm moths = details: cited from earlier work
# tobacco budworm moths = details: cited from earlier work
# H. zea males [1] = details: field experiments, sticky or electric grid traps; cited from earlier work
# H. zea males [2] = details: caged males; cited from earlier work
# H. zea females = assay: Bioassay: pheromone content of ligated, PBAN-injected females after a second injection with the isolated material; assay type: in vivo, Helicoverpa zea
# Description: The activity of the two peptides was evaluated by bioassay. Females were first ligated between head & thorax to remove their own source of PBAN; they were then injected with PBAN to stimulate pheromone biosynthesis, followed by a later injection with the isolated material.
# Females in their 1st or 2nd photophase after emergence are ligated between the head and thorax with silk thread. The following morning, approximately 16 hours later, the females are injected with 2 picomoles of the pheromonotropic peptide PBAN. One hour later, they are injected a second time with fractionated material obtained as described supra. Two hours later, the tip of the abdomen (at the 7th abdominal segment), containing the ovipositor and the glandular tissue producing sex pheromone, is excised and extracted with 5-15 μl heptane The amount of the major component of sex pheromone, Z-11-hexadecenal, is quantified by gas chromatography. Females receiving saline (control) at the second injection typically contain 50-150 nanograms pheromone in the extract while females having been injected with the peptides extracted from the male reproductive tract are found to have 1-5 nanograms.
# female H. zea = assay: Depletion of female sex pheromone after transfer of the polypeptide during mating; assay type: in vivo, Helicoverpa zea
# Description: This invention relates to a polypeptide which is transferred from the male corn earworm moth to the female during mating. After transfer, a decline in the production of sex pheromone is observed for at least 24 hours and the female becomes unattractive to males over that period of time. A continued presence of this peptide within the female serves as an effective means of insect control by rendering it permanently unattractive. The peptide is also useful in the study of insect physiology.
# Non-volatile chemicals may also trigger behavioral changes. As described above, the neuropeptide PBAN initiates pheromone biosynthesis. In addition, another polypeptide, pheromonostatic peptide (PSP) is produced in the reproductive tract of male H. zea and is transferred with spermatozoa to the female during mating.
molecule,measurement,setting,value
"CCCC/C=C\CCCCCCCCOC=O [(Z)-9-TDF, (Z)-9-tetradecen-1-ol formate]",reduction of mating,corn earworm moths,effective in reducing mating
same,reduction of mating,tobacco budworm moths,effective in reducing mating
CCCC/C=C\CCCCCCCCCC=O [Z-11-hexadecenal],catch of males in traps in the presence of the compound,H. zea males [1],inhibited
same,sex stimulation activity,H. zea males [2],strong sex stimulation activity
"PSP: basic, 57-amino acid peptide, 6615 daltons, one disulfide, pyro-Glu N-terminus, amidated C-terminus, from male H. zea accessory glands and duplex",pheromone accumulation with versus without PSP injection,"H. zea females; ligated females injected with PBAN, then with the isolated material",females receiving no PSP typically accumulated pheromone in much higher amounts than those having been injected with PSP
same,amount of Z-11-hexadecenal (major component of sex pheromone) in the ovipositor/gland extract,"H. zea females; ligated females, 2 picomoles PBAN, test material injected 1 hour later, gland excised 2 hours later, gas chromatography, saline control 50-150 nanograms",1-5 nanograms
same,duration of the pheromone depletion,female H. zea; after transfer during mating,at least 24 hours
same,effect on female sex pheromone after transfer at mating,female H. zea; transferred with spermatozoa from male to female during mating,causes a depletion of the sex pheromone
